Experimental data published in US8216551B2, “In vivo system to monitor tissue responses in birds” (The Board of Trustees of the University of Arkansas, priority 2008, dated 2012).

B1: IFN-γ: recombinant chicken IFN-γ (protein, UniProt P49708 20-164, looked up)
Interferon gamma: HTASSLNLVQLQDDIDKLKADFNSSHSDVADGGPIIVEKLKNWTERNEKRIILSQIVSMYLEMLENTDKSKPHIKHISEELYTLKNNLPDGVKKVKDIMDLAKLPMNDLRIQRKAANELFSILQKLVDPPSFKRKRSQSQRRCNC

Key:
feather pulp [1] = experiment: Local tissue response to LPS or PHA injected into feathers and wing webs; assay type: in vivo, chicken; conditions: for composition of the infiltrate / MHC class II expression: 6 hours post-injection; for MHC class II expression: immunohistochemistry; for leukocyte infiltration: in vivo
feather pulp [2] = experiment: Local tissue response to injection of IFN-γ into growing feathers; assay type: in vivo, chicken; conditions: for mean score of extent of mononuclear infiltration: score 1=no infiltration

Molecule | composition of the infiltrate (feather pulp [1]) | MHC class II expression (feather pulp [1]) | leukocyte infiltration (feather pulp [1]) | mean score of extent of mononuclear infiltration (feather pulp [2]; 6 h post-injection, 5=extensive infiltration throughout the entire pulp) | mean score of extent of mononuclear infiltration (feather pulp [2]; 1 day post-injection, 5=extensive) | mean score of extent of mononuclear infiltration (feather pulp [2]; 2 days post-injection, 5=extensive) | mean score of extent of mononuclear infiltration (feather pulp [2]; 3 days post-injection, 5=extensive) | histological analysis, cell infiltration into the feather pulp (feather pulp [2]; by 6 h, preliminary)
phytohaemagglutinin [PHA] | heterophils and mononuclear cells | substantially increased | extensive leukocyte infiltration | – | – | – | – | –
lipopolysaccharide [LPS] | primarily of heterophils | noticeable increase | extensive leukocyte infiltration | – | – | – | – | –
B1 | – | – | – | 1.6±0.1 | 4.0±0.5 | 3.2±0.6 | 3.0±0.9 | mononuclear cell infiltration into the feather pulp, but no granulocytes
